± gives the expanded uncertainty stated by the source.
Settings: 303.15 K, Liquid, Vibrating tube method

CCCCC(=O)OCC(COC(=O)CCCC)(COC(=O)CCCC)COC(=O)CCCC [pentaerythritol tetrapentanoate]
Settings | mass density [kg/m3]
4917.5 kPa | 1014 ± 1.2
4937.6 kPa | 1014 ± 1.2
4960.8 kPa | 1014 ± 1.2
4980.3 kPa | 1014.2 ± 1.2
5000.8 kPa | 1014.1 ± 1.2
5025.3 kPa | 1014.2 ± 1.2
5046.6 kPa | 1014.1 ± 1.2
5067.7 kPa | 1014.1 ± 1.2
5090.5 kPa | 1014.1 ± 1.2
5111.3 kPa | 1014.1 ± 1.2
5136.1 kPa | 1014.1 ± 1.2
5153.9 kPa | 1014.2 ± 1.2
5159.6 kPa | 1014.2 ± 1.2
5160.1 kPa | 1014.2 ± 1.2
5161.3 kPa | 1014.2 ± 1.2
5164.9 kPa | 1014.2 ± 1.2
5167.4 kPa | 1014.3 ± 1.2
5169.1 kPa | 1014.2 ± 1.2
5170.1 kPa | 1014.2 ± 1.2
5173.9 kPa | 1014.1 ± 1.2
5178.6 kPa | 1014.2 ± 1.2
5179.3 kPa | 1014.2 ± 1.2
5180.5 kPa | 1014.2 ± 1.2
5181.4 kPa | 1014.2 ± 1.2
5181.7 kPa | 1014.2 ± 1.2
5182.6 kPa | 1014.3 ± 1.2
5182.9 kPa | 1014.3 ± 1.2
5183.8 kPa | 1014.2 ± 1.2
5184.3 kPa | 1014.2 ± 1.2
5184.7 kPa | 1014.2 ± 1.2
5185.4 kPa | 1014.2 ± 1.2
5185.5 kPa | 1014.3 ± 1.2
5189.7 kPa | 1014.1 ± 1.2
5199.6 kPa | 1014.3 ± 1.2
5209.2 kPa | 1014.3 ± 1.2
5217.7 kPa | 1014.2 ± 1.2
5223.9 kPa | 1014.2 ± 1.2
5239.9 kPa | 1014.2 ± 1.2
5266.9 kPa | 1014.4 ± 1.2
5289.9 kPa | 1014.2 ± 1.2
5312.7 kPa | 1014.4 ± 1.2
5340.7 kPa | 1014.1 ± 1.2
5364.2 kPa | 1014.3 ± 1.2
5388.3 kPa | 1014.4 ± 1.2
5417.9 kPa | 1014.3 ± 1.2
5443 kPa | 1014.4 ± 1.2
5468.4 kPa | 1014.4 ± 1.2
5493.1 kPa | 1014.4 ± 1.2
5518.4 kPa | 1014.5 ± 1.2
5548.5 kPa | 1014.4 ± 1.2
5573.5 kPa | 1014.4 ± 1.2
5599.8 kPa | 1014.5 ± 1.2
5631 kPa | 1014.4 ± 1.2
5657.1 kPa | 1014.5 ± 1.2
5684.4 kPa | 1014.6 ± 1.2
5712.8 kPa | 1014.5 ± 1.2
5747 kPa | 1014.4 ± 1.2
5774.2 kPa | 1014.6 ± 1.2
5801.5 kPa | 1014.6 ± 1.2
5829.1 kPa | 1014.6 ± 1.2
5862.5 kPa | 1014.7 ± 1.2
5891.4 kPa | 1014.7 ± 1.2
5920.4 kPa | 1014.8 ± 1.2
5955.2 kPa | 1014.6 ± 1.2
5985.3 kPa | 1014.7 ± 1.2
6015.3 kPa | 1014.7 ± 1.2
6045.8 kPa | 1014.8 ± 1.2
6082.1 kPa | 1014.7 ± 1.2
6112.3 kPa | 1014.8 ± 1.2
6149.7 kPa | 1014.8 ± 1.2
6181.5 kPa | 1014.8 ± 1.2
6213.5 kPa | 1014.9 ± 1.2
6246.6 kPa | 1014.8 ± 1.2
6279.6 kPa | 1014.9 ± 1.2
6319.4 kPa | 1014.9 ± 1.2
6353.6 kPa | 1015 ± 1.2
6388.4 kPa | 1014.9 ± 1.2
6430.4 kPa | 1015 ± 1.2
6466 kPa | 1014.9 ± 1.2
6496.2 kPa | 1015 ± 1.2
6524.4 kPa | 1015.1 ± 1.2
6558.6 kPa | 1015.1 ± 1.2
6587.6 kPa | 1015.1 ± 1.2
6617.8 kPa | 1015.1 ± 1.2
6648.1 kPa | 1015.2 ± 1.2
6678.6 kPa | 1015.1 ± 1.2
6714 kPa | 1015.2 ± 1.2
6743.7 kPa | 1015.3 ± 1.2
6774.5 kPa | 1015.2 ± 1.2
6811.1 kPa | 1015.3 ± 1.2
6842.3 kPa | 1015.2 ± 1.2
6873.4 kPa | 1015.3 ± 1.2
6911.1 kPa | 1015.3 ± 1.2
6943.4 kPa | 1015.4 ± 1.2
6975.7 kPa | 1015.2 ± 1.2
7008.7 kPa | 1015.3 ± 1.2
7048.1 kPa | 1015.3 ± 1.2
7083.3 kPa | 1015.5 ± 1.2
7119.9 kPa | 1015.4 ± 1.2
7154.6 kPa | 1015.4 ± 1.2
7190.2 kPa | 1015.4 ± 1.2
7232.8 kPa | 1015.5 ± 1.2
7266.1 kPa | 1015.6 ± 1.2
7296.5 kPa | 1015.5 ± 1.2
7326.2 kPa | 1015.5 ± 1.2
7361.8 kPa | 1015.6 ± 1.2
7392.7 kPa | 1015.6 ± 1.2
7425.7 kPa | 1015.6 ± 1.2
7461.8 kPa | 1015.7 ± 1.2
7491.3 kPa | 1015.7 ± 1.2
7529.6 kPa | 1015.6 ± 1.2
7561.2 kPa | 1015.7 ± 1.2
7593.6 kPa | 1015.8 ± 1.2
7626.1 kPa | 1015.9 ± 1.2
7659.1 kPa | 1015.6 ± 1.2
7692.2 kPa | 1015.8 ± 1.2
7732.6 kPa | 1015.9 ± 1.2
7766.1 kPa | 1015.8 ± 1.2
7800.6 kPa | 1015.9 ± 1.2
7835 kPa | 1015.7 ± 1.2
7876.5 kPa | 1015.9 ± 1.2
7911.6 kPa | 1016 ± 1.2
7947.1 kPa | 1016 ± 1.2
7990.4 kPa | 1016 ± 1.2
8026.7 kPa | 1015.9 ± 1.2
8062.9 kPa | 1016.1 ± 1.2
8107.6 kPa | 1016.1 ± 1.2
8145.4 kPa | 1016.1 ± 1.2
8184.2 kPa | 1016.2 ± 1.2
8222.5 kPa | 1016.2 ± 1.2
8262.2 kPa | 1016.2 ± 1.2
8293.2 kPa | 1016.2 ± 1.2
8323.8 kPa | 1016.3 ± 1.2
8354.7 kPa | 1016.2 ± 1.2
8392.8 kPa | 1016.3 ± 1.2
8424.5 kPa | 1016.1 ± 1.2
8457.1 kPa | 1016.3 ± 1.2
8489 kPa | 1016.4 ± 1.2
8528 kPa | 1016.3 ± 1.2
8560.4 kPa | 1016.4 ± 1.2
8593.7 kPa | 1016.5 ± 1.2
8633.4 kPa | 1016.4 ± 1.2
8666.8 kPa | 1016.3 ± 1.2
8707.5 kPa | 1016.4 ± 1.2
8742.2 kPa | 1016.4 ± 1.2
8776.3 kPa | 1016.6 ± 1.2
8818.4 kPa | 1016.6 ± 1.2
8854.8 kPa | 1016.4 ± 1.2
8890.8 kPa | 1016.5 ± 1.2
8920.7 kPa | 1016.5 ± 1.2
8952.9 kPa | 1016.6 ± 1.2
8979.8 kPa | 1016.7 ± 1.2
9013.1 kPa | 1016.5 ± 1.2
9039.8 kPa | 1016.6 ± 1.2
9066.8 kPa | 1016.6 ± 1.2
9100.5 kPa | 1016.7 ± 1.2
9128.4 kPa | 1016.7 ± 1.2
9157.4 kPa | 1016.6 ± 1.2
9191.7 kPa | 1016.8 ± 1.2
9218.7 kPa | 1016.8 ± 1.2
